This data set is described as follows: recombinant barcode read abundance after kanamycin selection (control-corrected) (log10(CPM+1)); higher = more efficient recombination; sequences stand for … in AGTGCAGAGAAAATCGGCCAGTTTTCTCTGCCTGCAGTCCGCATGCCGT…AGATTTATGCAGCGGACTGCCTTTCTCCCAAAGTGATAAACCGGACAGTATCATGGACCGGTTTTCCCGGTAATCCGTATTTGCAAGGTTGGTTTCACT; site = the 11-nt target. The method in brief: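 A vector carrying a T7-inducible recombinase and the last 73 bp of the bridge RNA received, by Gibson cloning, oligos encoding a promoter, target, barcode and the first 104 bridge RNA bases under J23119. The pooled constructs entered E. coli together with a donor plasmid by electroporation. Selection used chloramphenicol/ampicillin/kanamycin with 0.1 mM IPTG, with chloramphenicol/ampicillin LB agar as the control, each in two replicates. Recombination efficiency is the averaged, control-corrected counts-per-million of barcodes at recombinant junctions, reported as log10(CPM+1).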
As to “TACGTGGCTTGGGTTCTAACCTGTTGCCT (site TACGTGGCTAG)”, the “recombinant barcode read abundance (log10)” value turned out to be 0.825.

“TACGTGTCTTGGGTTCTAACCTGTTGCTA (site TACGTGTCTTA)”: the “recombinant barcode read abundance (log10)” value was 2.19. In the case of “TACGTGTCTTGGGTTCTAACCTGTTGCTA (site TGCGTGTCTCA)” it was 0.051.

With “TACTAACCTTGGGTTCTAACCTGTTGCCT (site CATTAACCTAG)”, the “recombinant barcode read abundance (log10)” value is 0.0235. In the case of “TACTAACCTTGGGTTCTAACCTGTTGCCT (site TACTAACCTAG)” it was 0.752; in that of “TACTACCCTTGGGTTCTAACCTGTTGCCA (site TACTACCCTTG)”, 0.606; in that of “TACTACCCTTGGGTTCTAACCTGTTGCCA (site TAGTATCCTTG)”, 0.0944.

Consider “TACTACCCTTGGGTTCTAACCTGTTGCCT (site TACTACCCTAG)”, for which the “recombinant barcode read abundance (log10)” value amounted to 1.46.

As for “TACTACCCTTGGGTTCTAACCTGTTGCCT (site TCCTACCCTAG)”, the “recombinant barcode read abundance (log10)” value came to 0.126. Consider “TACTACCCTTGGGTTCTAACCTGTTGCCT (site TGCTACCCTAG)”, for which the “recombinant barcode read abundance (log10)” value was 0.0397.

Regarding “TACTACCCTTGGGTTCTAACCTGTTGCCT (site TTCTACCCTAG)”, the “recombinant barcode read abundance (log10)” value was 0.0291. For the sequence “TACTGGGCTTGGGTTCTAACCTGTTGCGG (site TACTGGGCTCA)”, the “recombinant barcode read abundance (log10)” value was 0.316. Consider “TACTGGGCTTGGGTTCTAACCTGTTGCGG (site TACTGGGCTCC)”, for which the “recombinant barcode read abundance (log10)” value is 2.2. As to “TACTTACCTTGGGTTCTAACCTGTTGCCT (site TACTTACCTAG)”, the “recombinant barcode read abundance (log10)” value came out at 0.362.

With “TACTTACCTTGGGTTCTAACCTGTTGCCT (site TTCTTACCTAG)”, the “recombinant barcode read abundance (log10)” value is 0.0922. “TACTTAGCTTGGGTTCTAACCTGTTGCCG (site TACTTAGCTCG)”: the “recombinant barcode read abundance (log10)” value was found to be 0.075. For “TACTTAGCTTGGGTTCTAACCTGTTGCCG (site TAGTTACCTCG)” the value was 0.0382; for “TAGAACCCTTGGGTTCTAACCTGTTGCTT (site TAGAACCCTAA)”, 0.367. On to “TAGAACCCTTGGGTTCTAACCTGTTGCTT (site TAGATCCCTAA)”, for which the “recombinant barcode read abundance (log10)” value came out at 0.0967.

Consider “TAGAACTCTTGGGTTCTAACCTGTTGCCC (site TAGAACTCTAG)”, for which the “recombinant barcode read abundance (log10)” value is 0.296. As for “TAGAACTCTTGGGTTCTAACCTGTTGCCC (site TAGAACTCTCG)”, the “recombinant barcode read abundance (log10)” value worked out at 0.0614. For “TAGAACTCTTGGGTTCTAACCTGTTGCCC (site TAGAACTCTGG)” the value was 0.427; for “TAGAACTCTTGGGTTCTAACCTGTTGCCC (site TAGAACTCTTG)”, 0.0327; for “TAGAACTCTTGGGTTCTAACCTGTTGCGC (site ACATTTCCTAT)”, 0.0572. “TAGAACTCTTGGGTTCTAACCTGTTGCGC (site TAGAACTCTGC)”: the “recombinant barcode read abundance (log10)” value worked out at 1. For “TAGAAGCCTTGGGTTCTAACCTGTTGCCG (site TACAAGCCTAG)”, the “recombinant barcode read abundance (log10)” value came to 0.0659. In the case of “TAGAAGCCTTGGGTTCTAACCTGTTGCCG (site TAGAAGCCTCG)” it was 1.62; in that of “TAGAAGGCTTGGGTTCTAACCTGTTGCGT (site TAGAAGGCTAA)”, 0.445. For “TAGAAGGCTTGGGTTCTAACCTGTTGCGT (site TAGAAGGCTAC)” the value was 2.75.

For the sequence “TAGAAGGCTTGGGTTCTAACCTGTTGCGT (site TAGAAGGCTAG)”, the “recombinant barcode read abundance (log10)” value amounted to 0.273. “TAGAAGGCTTGGGTTCTAACCTGTTGCGT (site TAGAAGGCTAT)”: the “recombinant barcode read abundance (log10)” value was found to be 1.96. As to “TAGAATGCTTGGGTTCTAACCTGTTGCTT (site TAGAATGCTAA)”, the “recombinant barcode read abundance (log10)” value was found to be 0.285.

The values are drawn from the supplement of paper PMC11208160.
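Also: IS621 recombinase and bridge RNA in Escherichia coli cells.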
